Experimental data reported in publication PMC8848031 (Saudi Journal of Biological Sciences, 2021).
Several values for one entry are separate records, joined by “and”; a condition that tells them apart may be missing. Identical values can stand only once. Blank lines part the entries; values can stand above or below the compound they belong to.

How the values were obtained:
[1] = molecular target: Saccharomyces cerevisiae α-glucosidase (E.C 3.2.1.20) (Saccharomyces cerevisiae, UniProt P53341); assay: Alpha-glucosidase inhibition assay; type: biochemical; conditions: Alpha-glucosidase inhibition IC50, isolated compounds; acarbose positive control
alpha-glucosidase [2] = molecular target: alpha-glucosidase (Saccharomyces cerevisiae, UniProt P53341); assay: Inhibitory type assay of BM3 on alpha-glucosidase; type: biochemical
alpha-glucosidase [3] = conditions: kinetic studies; ref Adisakwattana et al. (2009); cited from earlier work
alpha-glucosidase [4] = conditions: ref Wu et al., 2017; cited from earlier work
pancreatic lipase enzyme = conditions: extracted from T. stans leaves; ref [28]; cited from earlier work

Saccharomyces cerevisiae α-glucosidase (E.C 3.2.1.20), sequence (P53341 whole entry): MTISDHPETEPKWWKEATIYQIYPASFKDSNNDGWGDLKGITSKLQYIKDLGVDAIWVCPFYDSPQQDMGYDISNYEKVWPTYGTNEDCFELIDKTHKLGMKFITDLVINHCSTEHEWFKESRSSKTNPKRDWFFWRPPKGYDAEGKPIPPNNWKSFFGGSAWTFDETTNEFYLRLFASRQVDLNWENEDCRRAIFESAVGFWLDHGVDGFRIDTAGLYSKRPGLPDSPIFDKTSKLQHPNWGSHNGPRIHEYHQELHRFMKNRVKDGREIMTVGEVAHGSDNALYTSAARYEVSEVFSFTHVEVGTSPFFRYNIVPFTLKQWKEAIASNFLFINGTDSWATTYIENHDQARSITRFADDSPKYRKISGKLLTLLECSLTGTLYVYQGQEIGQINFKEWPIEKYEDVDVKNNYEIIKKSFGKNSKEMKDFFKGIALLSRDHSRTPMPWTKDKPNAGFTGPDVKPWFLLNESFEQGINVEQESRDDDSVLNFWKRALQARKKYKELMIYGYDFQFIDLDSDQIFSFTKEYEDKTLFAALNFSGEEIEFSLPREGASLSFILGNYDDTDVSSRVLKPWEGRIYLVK
alpha-glucosidase (Saccharomyces cerevisiae, UniProt P53341), sequence (P53341 whole entry): as above

SMILES: COC(=O)c1cc(O)c(O)c(O)c1 [BM2, methyl gallate]
IC50 [1]: 71 ± 2.1 µM

SMILES: COC(=O)c1cc(O)c(O)c(OC(=O)c2cc(O)c(O)c(O)c2)c1 [BM3, 3-O-galloylgallic acid methyl ester]
Ki (alpha-glucosidase [2]): 31.2 µM | inhibition type (alpha-glucosidase [2]; Lineweaver-Burk plots, pNPG 1, 2, 4 mM): competitive | Vmax (alpha-glucosidase [2]; no effect of increasing BM3 concentration): 0.049 µM/min | IC50 [1]: 18.2 ± 0.8 µM

SMILES: O=C(O)/C=C/c1ccc(O)c(O)c1 [NC3, caffeic acid]
inhibition type (alpha-glucosidase [3]): non-competitive

SMILES: COc1cc(-c2cc(=O)c3c(O)cc(O)cc3o2)ccc1O [TS3, chrysoeriol]
inhibition of pancreatic lipase enzyme (pancreatic lipase enzyme): strong inhibition

Continued, in another order:

IC50 [1]: 35.6 µM and 36.8 µM
SMILES: O=c1c(O[C@@H]2O[C@H](CO)[C@@H](O)[C@H](O)[C@H]2O)c(-c2ccc(O)c(O)c2)oc2cc(O)cc(O)c12 [NC2, isoquercitrin]

IC50 [1]: 39.2 ± 0.6 µM
SMILES: C[C@H]1[C@H](C)CC[C@]2(C(=O)O)CC[C@]3(C)C(=CC[C@@H]4[C@@]5(C)CC[C@H](O)C(C)(C)[C@@H]5CC[C@]43C)[C@H]12 [TS1, ursolic acid]
inhibition of alpha-glucosidase (alpha-glucosidase [4]): strong inhibition
